Converted amounts (≈) assume the structure as drawn. Read-outs that look alike come from different tables or passages of the source.
Tests used:
Assay type in all cases: cell-based
[1] = system: HIV (HTLV-IIIB strain); experiment: Infection inhibitory test: anti-HIV activity, MT-4 cells infected with HIV, MTT; conditions: Human immunodeficiency virus 1, IIIB, MT4, 120 h
Description: Anti-HIV activity and cytotoxicity are tested in the following manners.
(§1) (1) A human T cell MOLT-4 clone 8, a strain continuously infected with HIV (HTLV-IIIB strain), was incubated in RPMI-1640 medium containing 10% bovine fetus serum and the supernatant was isolated by filtration. After the determination of virus titer, the supernatant was stored at -80° C. A compound to be tested was diluted with the same medium to a given concentration and poured into 96-well microtiter plates by 100 μl/well. To the well is added 50 μl (2.5×10^4 cells) MT-4 cell suspensions, followed by the addition of 50 μl [600 pfu (plaque forming unit)] HIV-containing supernatant previously diluted with the same medium.
(§2) (2) After 5-day-incubation at 37° C. in a carbon dioxide incubator, 30 μl MTT {3-(4,5-diemthylthiazol-2-yl)-2,5-diphenyltetrazolium bromide), 5 mg/ml in PBS} was added to each well, and the incubation was continued for another 1 hour, during which surviving cells reduce MTT to precipitate folmazan.
(§3) The resultant folmazan was eluted by replacing 150 μl supernatant of a culture in each well by 150 μl solution comprising 10% triton X - 100 and isopropanol containing 0.4 v/v % HCl and shaking by means of a plate mixer. The resultant folmazan was assayed at 0D 540 nm, and the result was evaluated by comparison with that obtained in a control test.
IC50 is defined as a concentration of the compound (I) that gives a 50% inhibition against vital cytotoxicity.

[2] = Cytotoxicity, MT-4 cells without virus, MTT; conditions: human
Description: as §1, §2, §3
(§4) Cytotoxicity of a compound (I) was evaluated in a similar manner as described in 1 above except that 50 μl of the same medium is added to each well in place of the HIV-containing supernatant (viral solurtion).
(§5) CC50 is defiend as a concentration of the compound (I) that gives 50% cytotoxicity.

[3] = system: MT-4 cell; experiment: Cytotoxicity, MT-4 cells without virus, MTT; conditions: 50% cytotoxicity; MT-4 cells without virus, 5-day incubation, MTT
Description: as §1, §2, §3, §4, §5

[4] = 50% inhibition of viral cytotoxicity, MT-4 cells, 5-day incubation at 37 °C, MTT, read-out: IC50

Row | Compound | IC50 [1, 4] | CC50 at 120 h ([2]; 50% cytotoxicity, MT-4 cells without virus, 5-day incubation, MTT, read-out: CC50) | CC50 at 120 h ([2]; mt-4 cells) | IC50 [1] | CC50 [3]
1 | CC(C)=CCN1Cc2cc(Cl)cc3[nH]c(=S)n(c23)C[C@@H]1C [TIBO (R-82913), reference compound] | 0.13 to 0.25 µg/mL (≈ 0.404 to 0.777 µM) | 12.5 to 25 µg/mL (≈ 38.8 to 77.7 µM) |  |  | 
2 | CCc1nc(C)n(COCCO)c1Sc1cc(C)cc(C)c1 [Compound I-29, 5-(3,5-Dimethylphenylthio)-4-ethyl-1-[(2-hydroxyethoxy)-methyl]-2-methylimidazole] | 0.13 to 0.25 µg/mL (≈ 0.406 to 0.78 µM) |  | 25 to 50 µg/mL (≈ 78 to 156 µM) |  | 
3 | CCOCn1c(C)nc(Cc2cc(F)cc(F)c2)c1C(C)C [Compound I-93] | 0.06 µg/mL (≈ 0.195 µM) |  | 12.5 to 25 µg/mL (≈ 40.5 to 81.1 µM) |  | 
4 | Cc1cc(C)cc(Cc2c(C(C)C)nc(C)n2COCc2ccccc2)c1 [Compound I-50] | 0.016 µg/mL (≈ 0.0441 µM) |  | 6.25 to 12.5 µg/mL (≈ 17.2 to 34.5 µM) |  | 
5 | CCc1nc(C)n(COCc2ccccc2)c1Sc1cc(C)cc(C)c1 [Compound I-14] | 0.016 to 0.032 µg/mL (≈ 0.0437 to 0.0873 µM) |  | 10 to 20 µg/mL (≈ 27.3 to 54.6 µM) |  | 
6 | CCOCn1c(C)nc(C(C)C)c1Cc1cc(Cl)cc(Cl)c1 [Compound I-67] | 0.005 µg/mL (≈ 0.0147 µM) |  | 6.25 to 12.5 µg/mL (≈ 18.3 to 36.6 µM) |  | 
7 | Cc1cc(C)cc(Sc2c(C(C)C)nc(C)n2COCc2ccccc2)c1 [Compound I-16] | 0.016 to 0.031 µg/mL (≈ 0.042 to 0.0815 µM) |  |  |  | 
8 | Cc1nc(Cc2cc(Cl)cc(Cl)c2)c(C(C)C)n1COCc1ccccc1 [Compound I-91] | 0.5 to 1 µg/mL (≈ 1.24 to 2.48 µM) |  | 10 to 100 µg/mL (≈ 24.8 to 248 µM) |  | 
9 | CCCc1nc(Br)n(COCc2ccccc2)c1Sc1ccccc1 [Compound I-13] |  |  | 12.5 to 25 µg/mL (≈ 29.9 to 59.9 µM) |  | 
10 | CCOCn1c(C)nc(Cc2cc(Cl)cc(Cl)c2)c1C(C)C [Compound I-90] | 0.5 to 1 µg/mL (≈ 1.47 to 2.93 µM) |  | 1 to 10 µg/mL (≈ 2.93 to 29.3 µM) |  | 
11 | CCc1ncn(COCc2ccccc2)c1Sc1ccccc1 [Compound I-4, 1-benzyloxymethyl-4-ethyl-5-phenylthioimidazole] | 0.13 to 0.25 µg/mL (≈ 0.401 to 0.771 µM) |  | 12.5 to 25 µg/mL (≈ 38.5 to 77.1 µM) |  | 
12 | Cc1nc(C(C)C)c(Sc2ccccc2)n1COCc1ccccc1 [Compound I-17] | 0.016 µg/mL (≈ 0.0454 µM) |  |  |  | 
13 | Cc1nc(C(C)C)c(Cc2cc(F)cc(F)c2)n1COCc1ccccc1 [Compound I-69] | 0.003 µg/mL (≈ 0.0081 µM) |  | 6.25 to 12.5 µg/mL (≈ 16.9 to 33.7 µM) |  | 
14 | CCc1nc(Br)n(COCc2ccccc2)c1Sc1ccccc1 [Compound I-12] | 0.06 to 0.13 µg/mL (≈ 0.149 to 0.322 µM) |  | 12.5 to 25 µg/mL (≈ 31 to 62 µM) |  | 
15 | c1ccc(COCn2cncc2Sc2ccccc2)cc1 [Compound I-5, 1-benzyloxymethyl-5-phenylthioimidazoe nitrate] | 0.13 to 0.25 µg/mL |  | 12.5 to 25 µg/mL |  | 
16 | CCOCn1c(C)nc(CC)c1Sc1cc(C)cc(C)c1 [Compound I-15] | 0.063 to 0.12 µg/mL (≈ 0.207 to 0.394 µM) |  | 10 to 20 µg/mL (≈ 32.8 to 65.7 µM) |  | 
17 | CCCc1ncn(COCc2ccccc2)c1Sc1ccccc1 [Compound I-9] |  |  | 12.5 to 25 µg/mL (≈ 36.9 to 73.9 µM) |  | 
18 | Cc1nc(C(C)C)c(Cc2ccccc2)n1COCc1ccccc1 [Compound I-42, 5-Benzyl-1-benzyloxymethyl-4-isopropyl-2-methylimidazole] | 0.016 µg/mL (≈ 0.0478 µM) |  | 3.1 to 6.25 µg/mL (≈ 9.27 to 18.7 µM) |  | 
19 | CCc1nc(C)n(COCc2ccccc2)c1Sc1ccccc1 [Compound I-1, 1-benzyloxymethyl-4-ethyl-2-methyl-5-phenylthioimidazole] | 0.03 to 0.06 µg/mL (≈ 0.0886 to 0.177 µM) |  |  |  | 
20 | Cc1cn([C@H]2C[C@H](N=[N+]=[N-])[C@@H](CO)O2)c(=O)[nH]c1=O [AZT, azidodeoxythymidine, reference compound] |  |  |  | 0.005 to 0.01 µg/mL (≈ 0.0187 to 0.0374 µM) | 25 µg/mL (≈ 93.5 µM)
21 | Cc1nc(Cc2cc(F)cc(F)c2)c(C(C)C)n1COCc1ccccc1 [Compound I-92] | 0.25 µg/mL (≈ 0.675 µM) |  | 6.25 to 12.5 µg/mL (≈ 16.9 to 33.7 µM) |  | 
22 | CCOCn1c(C)nc(C(C)C)c1Sc1ccccc1 [Compound I-18] | 0.016 µg/mL (≈ 0.0551 µM) |  | 25 to 50 µg/mL (≈ 86.1 to 172 µM) |  | 
23 | CCOCn1c(C)nc(C(C)C)c1Cc1cccnc1 [Compound I-58] | 0.5 µg/mL (≈ 1.83 µM) |  | > 100 µg/mL |  | 
